Test results: patent publication US9850283B2, “Macrocyclic inhibitors of the PD-1/PD-L1 and CD80(B7-1)/PD-L1 protein/protein interactions” (BRISTOL-MYERS SQUIBB COMPANY, priority 2013, dated 2017)
Read-outs that look alike come from different tables or passages of the source. Positions of bridges follow the written chain, without caps; N, C: chain ends. Non-standard residues stand in square brackets, D forms with d. Residues, ends and D or L forms follow the SMILES beside them. *: point of attachment. Pro(cis-4-Ph) = O=C(O)[C@@H]1C[C@H](c2ccccc2)CN1; Ala(4-thiazolyl) = N[C@@H](Cc1cscn1)C(=O)O; Bip = N[C@@H](Cc1ccc(-c2ccccc2)cc1)C(=O)O; 1Nal = N[C@@H](Cc1cccc2ccccc12)C(=O)O; Cyclopentanecarbonyl = O=C(C1CCCC1)*; Cyclobutanecarbonyl = O=C(C1CCC1)*; hPhe = N[C@@H](CCc1ccccc1)C(=O)O; NMeNle = CCCC[C@H](NC)C(=O)O; NMeA = CN[C@@H](C)C(=O)O; Dap = NC[C@H](N)C(=O)O; Sar = CNCC(=O)O

Legend:
Human PD-L1/PD-1 = molecular target: T1, Human PD-L1/PD-1 (Homo sapiens, UniProt Q9NZQ7); assay: HTRF PD-1-Ig/PD-L1-His binding assay (human PD-L1)
T1 construct: made in house; host or cells: HEK293T
Summary of the method: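 Readout: time-resolved FRET between Eu cryptate-labeled anti-Ig (1 nM final) and APC-labeled anti-His (20 nM final) antibodies. These detect interaction of Fc-fused PD-1 with His-tagged human PD-L1 in dPBS containing 0.1% BSA and 0.05% Tween-20.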

[1] = molecular target: T2, LK35.2-hPD-L1 cells / PE-labeled PD-1-Ig (Homo sapiens, UniProt Q9NZQ7); assay: LK35.2-hPD-L1 cell binding high-content screening assay; type: cell-based
T2 construct: expressed in transfected cells; host or cells: LK35.2 mouse B cell line
Protocol: LK35.2-hPD-L1 Cell Binding High-Content Screening Assay. Phycoerythrin (PE) was covalently linked to the Ig epitope tag of human PD-1-Ig and fluorescently-labeled PD-1-Ig was used for binding studies with a mouse B cell line (LK35.2) stably over-expressing human PD-L1 (LK35.2-hPD-L1). Briefly, 3×10^3 LK35.2-hPD-L1 cells were seeded into 384 well plates in 20 ul of RPMI supplemented with 10% fetal calf serum and cultured overnight. 125 nl of compound was added to cells, followed by 5 ul of PE-labeled PD-1-Ig (1 nM final), diluted in RPMI supplemented with 10% fetal calf serum, followed by incubation at 37° C. for 1 h. […] Cells were washed 3× in 100 ul of dPBS followed by final addition of 15 ul of dPBS. Data was collected and processed using a Cell Insight NXT High Content Imager and associated software.

[2] = cluster symbol, read-out: HTRF IC50 cluster
[3] = cell binding assay, cell line not given, cluster symbol, read-out: CBA IC50 cluster
[4] = cluster symbol, cell line of CBA not given (LK35.2-hPD-L1 or 293T-hPD-L1), read-out: CBA IC50 cluster

T2 sequence (Q9NZQ7 19-290): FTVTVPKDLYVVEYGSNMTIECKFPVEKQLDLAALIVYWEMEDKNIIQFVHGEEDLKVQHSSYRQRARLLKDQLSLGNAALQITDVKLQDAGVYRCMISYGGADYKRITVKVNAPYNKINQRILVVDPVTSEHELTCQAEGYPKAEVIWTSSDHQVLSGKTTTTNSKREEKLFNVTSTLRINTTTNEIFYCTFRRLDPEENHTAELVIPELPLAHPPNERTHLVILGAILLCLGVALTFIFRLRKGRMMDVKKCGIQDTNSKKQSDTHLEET
T1 sequence (Q9NZQ7 with tags, fused parts or gaps): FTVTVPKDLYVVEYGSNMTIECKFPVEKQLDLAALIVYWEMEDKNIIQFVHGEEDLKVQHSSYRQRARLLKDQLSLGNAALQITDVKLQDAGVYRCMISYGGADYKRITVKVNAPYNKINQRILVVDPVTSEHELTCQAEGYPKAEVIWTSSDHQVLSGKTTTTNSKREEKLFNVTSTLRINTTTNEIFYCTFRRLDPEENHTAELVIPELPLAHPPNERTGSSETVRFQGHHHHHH

Structure (SMILES) | IC50 (Human PD-L1/PD-1; [2]) | IC50 [1, 4] | further results
CCCC[C@H]1C(=O)N(C)CC(=O)N[C@@H](CC(=O)O)C(=O)N[C@@H](C(C)C)C(=O)N(C)[C@@H](Cc2ccccc2)C(=O)N[C@@H](Cc2ccc(O)cc2)C(=O)N(C)CC(=O)N[C@@H](Cc2c[nH]c3ccccc23)C(=O)N[C@@H](Cc2ccc(O)cc2)C(=O)N[C@@H](CC(C)C)C(=O)N[C@H](C(=O)NCC(N)=O)CSCC(=O)N[C@@H](Cc2ccccc2)C(=O)N(C)[C@@H](Cc2cccc3ccccc23)C(=O)N1C (single isomer, unassigned) [Example 3585-A] | > 30.5 nM | – | IC50 [1, 3]: > 74.3 nM
CCCC[C@H]1C(=O)N(C)CC(=O)N[C@@H](CC(=O)O)C(=O)N[C@@H](C(C)C)C(=O)N(C)[C@@H](Cc2ccccc2)C(=O)N[C@@H](Cc2ccc(O)cc2)C(=O)N(C)CC(=O)N[C@@H](Cc2c[nH]c3ccccc23)C(=O)N[C@@H](Cc2ccc(O)cc2)C(=O)N[C@@H](CC(C)C)C(=O)N[C@H](C(=O)NCC(N)=O)CSCC(=O)N[C@@H](Cc2ccccc2)C(=O)N(C)[C@@H](Cc2cccc3ccccc23)C(=O)N1C (single isomer, unassigned) [Example 3585-B] | 6.76 to 30.3 nM | – | IC50 [1, 3]: 4.78 to 72.9 nM
CCCC[C@H]1C(=O)N(C)CC(=O)N[C@@H](CC(=O)O)C(=O)N[C@@H](C(C)C)C(=O)N(C)[C@@H](Cc2ccccc2)C(=O)N[C@@H](Cc2ccc(O)cc2)C(=O)N(C)CC(=O)N[C@@H](C)C(=O)N[C@@H](Cc2ccc(O)cc2)C(=O)N[C@@H](CC(C)C)C(=O)N[C@@H](C(=O)NCC(N)=O)CSCC(=O)N[C@@H](Cc2ccccc2)C(=O)N(C)[C@@H](Cc2ccccc2)C(=O)N1C [Example 1001] (HELM PEPTIDE1{[O=C(C[*:3])[*:2]].F.[meF].[CCCC[C@@H](C(=O)[*:2])N(C)[*:1]].[Sar].D.V.[meF].Y.[Sar].A.Y.L.[dC].G.[am]}$PEPTIDE1,PEPTIDE1,1:R3-14:R3$$$V2.0) | > 30.5 nM | > 74.3 nM | –
CCCC[C@H]1C(=O)N(C)[C@@H](CCCC)C(=O)N[C@@H](CCCNC(=N)N)C(=O)N[C@H](C(=O)NCC(N)=O)CSCC(=O)N[C@@H](Cc2ccccc2)C(=O)N(C)[C@@H](C)C(=O)N[C@@H](CC(N)=O)C(=O)N2CCC[C@H]2C(=O)N[C@@H](Cc2cnc[nH]2)C(=O)N[C@@H](CC(C)C)C(=O)N(C)CC(=O)N[C@@H](Cc2cscn2)C(=O)N[C@@H](CO)C(=O)N[C@@H](Cc2c[nH]c3ccccc23)C(=O)N1C [Example 1010] ({CH2CO}-F[NMeA]NPHL[Sar][Ala(4-thiazolyl)]SW[NMeNle][NMeNle]RCG-NH2; thioether N-14) | – | – | IC50 (Human PD-L1/PD-1; read-out: HTRF IC50 value): > 10000 nM; IC50 ([1]; cell line of CBA not given (LK35.2-hPD-L1 or 293T-hPD-L1), read-out: CBA IC50 value): > 10000 nM
CCCC[C@H]1C(=O)N[C@@H](CCCNC(=N)N)C(=O)N[C@H](C(=O)NCC(N)=O)CSCC(=O)N[C@@H](Cc2ccccc2)C(=O)N(C)[C@@H](C)C(=O)N[C@@H](CC(N)=O)C(=O)N2CCC[C@H]2C(=O)N[C@@H](Cc2cnc[nH]2)C(=O)N[C@@H](CC(C)C)C(=O)N(C)CC(=O)N[C@@H](Cc2c[nH]c3ccccc23)C(=O)N[C@@H](CO)C(=O)N[C@@H](Cc2c[nH]c3ccccc23)C(=O)N[C@@H](CNC(=O)C2CCCC2)C(=O)N1C [Example 1012] ({CH2CO}-F[NMeA]NPHL[Sar]WSW[Dap](Cyclopentanecarbonyl)[NMeNle]RCG-NH2; thioether N-14) | > 30.5 nM | > 74.3 nM | –
CCCC[C@H]1C(=O)N(C)[C@@H](CCCC)C(=O)N[C@@H](CCC(=O)O)C(=O)N[C@H](C(=O)NCC(N)=O)CSCC(=O)N[C@@H](Cc2ccc(O)cc2)C(=O)N(C)[C@@H](C)C(=O)N[C@@H](CC(=O)O)C(=O)N2CCC[C@H]2C(=O)N[C@@H](Cc2c[nH]cn2)C(=O)N[C@@H](CCCCN)C(=O)N2C[C@@H](c3ccccc3)C[C@H]2C(=O)N[C@@H](Cc2c[nH]c3ccccc23)C(=O)N[C@@H](CCCCN)C(=O)N[C@@H](Cc2c[nH]c3ccccc23)C(=O)N1C [Example 13006] ({CH2CO}-Y[NMeA]DPHK[Pro(cis-4-Ph)]WKW[NMeNle][NMeNle]ECG-NH2; thioether N-14) | – | – | IC50 ([1]; cell binding assay, cell line not given, value given instead of cluster, read-out: CBA IC50 value): 1.46 nM

More lines, main results first:

IC50 (Human PD-L1/PD-1; [2]) | IC50 [1, 4] | Structure (SMILES) | further results
6.76 to 30.3 nM | 4.78 to 72.9 nM | CCCC[C@H]1C(=O)N(C)[C@@H](CCCC)C(=O)N[C@@H](CCCNC(=N)N)C(=O)N[C@@H](C(=O)NCC(N)=O)CSCC(=O)N[C@@H](Cc2ccccc2)C(=O)N(C)[C@@H](C)C(=O)N[C@@H](CC(N)=O)C(=O)N2CCC[C@H]2C(=O)N[C@@H](Cc2cnc[nH]2)C(=O)N[C@@H](CC(C)C)C(=O)N(C)CC(=O)N[C@@H](Cc2c[nH]c3ccccc23)C(=O)N[C@@H](CO)C(=O)N[C@@H](Cc2cccc3ccccc23)C(=O)N1C [Example 1002] ({CH2CO}-F[NMeA]NPHL[Sar]WS[1Nal][NMeNle][NMeNle]R[dC]G-NH2; thioether N-14) | –
> 30.5 nM | > 74.3 nM | CCCC[C@H]1C(=O)N(C)[C@@H](Cc2ccccc2)C(=O)N[C@@H](CCCNC(=N)N)C(=O)N[C@H](C(=O)NCC(N)=O)CSCC(=O)N[C@@H](Cc2ccccc2)C(=O)N(C)[C@@H](C)C(=O)N[C@@H](CC(N)=O)C(=O)N2CCC[C@H]2C(=O)N[C@@H](Cc2cnc[nH]2)C(=O)N[C@@H](CC(C)C)C(=O)N(C)CC(=O)N[C@@H](Cc2c[nH]c3ccccc23)C(=O)N[C@@H](CO)C(=O)N[C@@H](Cc2c[nH]c3ccccc23)C(=O)N1C [Example 1003] (HELM PEPTIDE1{[O=C(C[*:3])[*:2]].F.[meA].N.P.H.L.[Sar].W.S.W.[CCCC[C@@H](C(=O)[*:2])N(C)[*:1]].[meF].R.C.G.[am]}$PEPTIDE1,PEPTIDE1,1:R3-15:R3$$$V2.0) | –
> 30.5 nM | > 74.3 nM | CCCC[C@H]1C(=O)N(C)[C@@H](CCCC)C(=O)N[C@@H](CCCNC(=N)N)C(=O)N[C@H](C(=O)NCC(N)=O)CSCC(=O)N[C@@H](Cc2ccccc2)C(=O)N(C)[C@@H](C)C(=O)N[C@@H](CC(N)=O)C(=O)N2CCC[C@H]2C(=O)N[C@@H](Cc2c[nH]cn2)C(=O)N[C@@H](CC(C)C)C(=O)N(C)CC(=O)N[C@@H](Cc2c[nH]c3ccccc23)C(=O)N[C@@H](CO)C(=O)N[C@@H](Cc2c[nH]cn2)C(=O)N1C [Example 1004] ({CH2CO}-F[NMeA]NPHL[Sar]WSH[NMeNle][NMeNle]RCG-NH2; thioether N-14) | –
> 30.5 nM | > 74.3 nM | CCCC[C@H]1C(=O)N[C@@H](CCCNC(=N)N)C(=O)N[C@H](C(=O)NCC(N)=O)CSCC(=O)N[C@@H](Cc2ccccc2)C(=O)N(C)[C@@H](C)C(=O)N[C@@H](CC(N)=O)C(=O)N2CCC[C@H]2C(=O)N[C@@H](Cc2cnc[nH]2)C(=O)N[C@@H](CC(C)C)C(=O)N(C)CC(=O)N[C@@H](Cc2c[nH]c3ccccc23)C(=O)N[C@@H](CO)C(=O)N[C@@H](Cc2c[nH]c3ccccc23)C(=O)N2CCC[C@H]2C(=O)N1C [Example 1005] (HELM PEPTIDE1{[O=C(C[*:3])[*:2]].F.[meA].N.P.H.L.[Sar].W.S.W.P.[CCCC[C@@H](C(=O)[*:2])N(C)[*:1]].R.C.G.[am]}$PEPTIDE1,PEPTIDE1,1:R3-15:R3$$$V2.0) | –
> 30.5 nM | > 74.3 nM | CCCC[C@H]1C(=O)N[C@@H](CCCNC(=N)N)C(=O)N[C@H](C(=O)NCC(N)=O)CSCC(=O)N[C@@H](Cc2ccccc2)C(=O)N(C)[C@@H](C)C(=O)N[C@@H](CC(N)=O)C(=O)N2CCC[C@H]2C(=O)N[C@@H](Cc2cnc[nH]2)C(=O)N[C@@H](CC(C)C)C(=O)N(C)CC(=O)N[C@@H](Cc2c[nH]c3ccccc23)C(=O)N[C@@H](CO)C(=O)N[C@@H](Cc2c[nH]c3ccccc23)C(=O)N[C@@H](CCc2ccccc2)C(=O)N1C [Example 1006] ({CH2CO}-F[NMeA]NPHL[Sar]WSW[hPhe][NMeNle]RCG-NH2; thioether N-14) | –
> 30.5 nM | > 74.3 nM | CCCC[C@H]1C(=O)N(C)[C@@H](CCCC)C(=O)N[C@@H](CCCNC(=N)N)C(=O)N[C@H](C(=O)NCC(N)=O)CSCC(=O)N[C@@H](Cc2ccccc2)C(=O)N(C)[C@@H](C)C(=O)N[C@@H](CC(N)=O)C(=O)N2CCC[C@H]2C(=O)N[C@@H](Cc2cnc[nH]2)C(=O)N[C@@H](CC(C)C)C(=O)N(C)CC(=O)N[C@@H](Cc2ccc(-c3ccccc3)cc2)C(=O)N[C@@H](CO)C(=O)N[C@@H](Cc2c[nH]c3ccccc23)C(=O)N1C [Example 1007] ({CH2CO}-F[NMeA]NPHL[Sar][Bip]SW[NMeNle][NMeNle]RCG-NH2; thioether N-14) | –
> 30.5 nM | > 74.3 nM | CCCC[C@H]1C(=O)N[C@@H](CCCNC(=N)N)C(=O)N[C@H](C(=O)NCC(N)=O)CSCC(=O)N[C@@H](Cc2ccccc2)C(=O)N(C)[C@@H](C)C(=O)N[C@@H](CC(N)=O)C(=O)N2CCC[C@H]2C(=O)N[C@@H](Cc2cnc[nH]2)C(=O)N[C@@H](CC(C)C)C(=O)N(C)CC(=O)N[C@@H](Cc2c[nH]c3ccccc23)C(=O)N[C@@H](CO)C(=O)N[C@@H](Cc2c[nH]c3ccccc23)C(=O)N[C@@H](CNC(=O)C2CCC2)C(=O)N1C [Example 1011] ({CH2CO}-F[NMeA]NPHL[Sar]WSW[Dap](Cyclobutanecarbonyl)[NMeNle]RCG-NH2; thioether N-14) | –
